Reference: article PMC6105804, “In Vitro and In Vivo Evaluation of APX001A/APX001 and Other Gwt1 Inhibitors against Cryptococcus” (Antimicrobial Agents and Chemotherapy, 2018)
Like-named read-outs stand apart in the source and are kept apart here.

Experiments:
C. gattii = test: Broth microdilution susceptibility testing (CLSI M27-A3); assay type: cell-based; details: Cryptococcus gattii
Excerpt: (§1) C. neoformans strains H99, DUMC 118.00, and DUMC 158.03 and C. gattii strains R272 and RSA-MW-3515 were obtained from Duke University. C. albicans 90028, A. fumigatus MYA3626, C. neoformans 14116, C. neoformans 76484, and the pathogenic Cryptococcus reference strains panel (ATCC MP-11) were obtained from the American Type Culture Collection (ATCC; Manassas, VA, USA). The ATCC MP-11 panel consists of strains representing eight molecular types and three subtypes of C. neoformans and C. gattii.
(§2) To establish the antimicrobial activity of the APX001A analogs, broth microdilution susceptibility testing was performed according to Clinical and Laboratory Standards Institute (CLSI) guidelines M27-A3 ([47]) for yeasts and M38-A2 for molds ([48]). APX001A and analogs were first diluted in DMSO to obtain intermediate dilutions. These were further diluted in microtiter plates to obtain a final concentration of 2 to 0.002 μg/ml. One microliter of DMSO was added to the no-drug control wells. The solutions were mixed on a plate shaker for 10 min, and the plates were incubated at 35°C for 40 to 48 h (C. albicans, A. fumigatus) and 72 h (C. neoformans). The minimum concentration that led to a 50% reduction in fungal growth compared to that for the control (determined with the aid of a reading mirror) was determined as the MIC for C. albicans and C. neoformans. The minimum concentration that led to the shortening of hyphae compared to the hyphal growth in DMSO control wells was determined as the minimum effective concentration (MEC) for A. fumigatus (as read for the echinocandins). The use of the MIC and MEC endpoints for APX001A (formerly E1210) against yeasts and molds, respectively, has been described previously ([19][–][21]). For the cryptococcal synergy studies, APX001A and APX2020 MIC values were read at 50% inhibition.

C. albicans 90028 = test: as above; assay type: cell-based, Candida albicans
Excerpt: as §1, §2

[1] = Single-dose mouse pharmacokinetics of prodrugs with or without ABT; assay type: in vivo; details: for Ratio of AUC with ABT/AUC without ABT, i.p. dosing / Ratio of AUC with ABT/AUC without ABT, p.o. dosing: 26 mg/kg prodrug; for AUC: male, CD-1, mouse, plasma, 26 mg/kg
Procedure: The area under the curve (AUC) was calculated from time zero to the time of the last measurable concentration. The active metabolite concentrations in plasma (APX001A, APX2039, APX2020, and APX2041) were determined by liquid chromatography-tandem mass spectrometry. PK parameters were determined using Phoenix WinNonlin (v7.0) software and a noncompartmental model.

C. neoformans = test: Broth microdilution susceptibility testing (CLSI M27-A3); assay type: cell-based, Cryptococcus neoformans; details: for MIC: Cryptococcus neoformans
Excerpt: as §1, §2

[2] = system: FLC-susceptible and FLC-nonsusceptible/resistant strains of C. neoformans and C. gattii; test: Broth microdilution, summary over the 18-strain Cryptococcus collection; assay type: cell-based, Cryptococcus neoformans and Cryptococcus gattii; details: for MIC90 / MIC: 18 strains of C. neoformans and C. gattii; for MIC: read-out: Geometric mean MIC
Procedure: as §2, with “The minimum concentration that led to the shortening of hyphae compared to the hyphal growth in DMSO control wells was determined as the minimum effective concentration (MEC) for A. fumigatus (as read for the echinocandins).” left out

A. fumigatus MYA3626 = test: Broth microdilution susceptibility testing for molds (CLSI M38-A2); assay type: cell-based
Excerpt: as §1, §2

C. neoformans strain H99 = test: Murine cryptococcal meningitis model with ABT, dose-response study; assay type: in vivo, Cryptococcus neoformans; details: control animals with daily 100-mg/kg ABT without an APX compound
Procedure: A dose-response study was performed with APX2096 and APX2097 to confirm the observed activity. In this study, QD doses of 7.5, 20, and 60 mg/kg were evaluated in conjunction with the administration of ABT. A 60-mg/kg dose QD without ABT was also evaluated as a control.
FIG 3 Dose-response of APX2096 and APX2097 in a murine model of cryptococcal meningitis in conjunction with ABT administration. ABT at 100 mg/kg was administered orally to male CD-1 mice at 2 h prior to each APX compound dose. Mice were injected with 4.8 × 10^4 CFU C. neoformans strain H99 per mouse via the lateral tail vein at time zero. Treatment with the APX compounds was initiated at 1 h postinfection by i.p. administration and continued for 7 days, with 100-mg/kg ABT being administered orally 2 h prior to each APX compound dose. The correction factors for prodrug potencies versus the potencies of the active moieties were similar enough such that the same factor (1.3) was used for all APX compounds. Fungal burden data were log10 transformed and evaluated using Kruskal-Wallis tests with Dunn's multiple-comparison test for post hoc analysis (Prism software, v5; GraphPad Software, Inc., San Diego, CA). […] A P value of ≤0.05 was considered statistically significant (*, P ≤ 0.05; **, P ≤ 0.01; ***, P ≤ 0.001). The 95% confidence interval (CI) is presented.
C. neoformans strain H99 was grown in yeast extract-peptone-dextrose broth at 30°C on a shaker (220 rpm) for 24 h, centrifuged (1,980 relative centrifugal force), and washed twice in phosphate-buffered saline (PBS), resuspended in PBS, and quantified by hemacytometric count. Male CD-1 mice were infected with ∼5 × 10^4 CFU per mouse via lateral tail vein injection of 100 μl. Mice were weighed, and treatment was begun within 1 h after infection. Treatments were administered daily for 7 days. Mice were weighed daily and observed for acute and chronic adverse symptoms. Mice were sacrificed on day 8, and the brain and left lung were homogenized and cultured for quantitative determination of the tissue burden (number of CFU per gram of tissue). Tissues were homogenized for 25 s in 1 ml phosphate-buffered saline using two 6.5-mm steel beads and a Mini-Beadbeater 16 apparatus (Biospec Products, Inc., Bartlesville, OK) and serially diluted in 10-fold steps. Aliquots (100 μl) of homogenate were plated and incubated for 3 to 7 days at 37°C. Fungal burden data were log10 transformed and evaluated using Kruskal-Wallis tests with Dunn's multiple-comparison test for post hoc analysis (Prism software, v5; GraphPad Software, Inc., San Diego, CA). A P value of ≤0.05 was considered statistically significant.

[3] = C. gattii isolate MYA-4093, read-out: MIC
[4] = C. gattii isolate MYA-4094, read-out: MIC
[5] = C. gattii isolate MYA-4560 (first listing, r17), read-out: MIC
[6] = C. gattii isolate MYA-4560 (second listing, r21), read-out: MIC
[7] = C. gattii isolate MYA-4561, read-out: MIC
[8] = C. gattii isolate MYA-4562, read-out: MIC
[9] = C. gattii isolate MYA-4563, read-out: MIC
[10] = C. gattii isolate MYA-4877, read-out: MIC
[11] = C. gattii isolate RSA-MW-3615 (FLC resistant), read-out: MIC
[12] = Table 1, 50% growth inhibition for FLC, caspofungin and APX compounds, 100% for AMB, read-out: MIC, C. gattii WM276
[13] = Candida albicans, 90028; read-out: MIC, C. albicans 90028
[14] = intraperitoneal, AUC of analyte after 26 mg/kg prodrug, 100 mg/kg ABT orally 2 h before, read-out: Avg AUC resulting from 26-mg/kg dose, i.p. dosing + ABT
[15] = ip, AUC of analyte after 26 mg/kg of the corresponding prodrug, male CD-1 mice, no ABT, read-out: Avg AUC resulting from 26-mg/kg dose, i.p. dosing
[16] = po, AUC of analyte after 26 mg/kg prodrug, 100 mg/kg ABT orally 2 h before, read-out: Avg AUC resulting from 26-mg/kg dose, p.o. dosing + ABT
[17] = po, AUC of analyte in plasma after 26 mg/kg of the corresponding prodrug, male CD-1 mice, no ABT, read-out: Avg AUC resulting from 26-mg/kg dose, p.o. dosing
[18] = 72 h, Table 1, 50% growth inhibition for FLC, caspofungin and APX compounds, 100% for AMB, 72 h, read-out: MIC, C. neoformans H99
[19] = C. neoformans isolate 14116, read-out: MIC
[20] = C. neoformans isolate 76484, read-out: MIC
[21] = C. neoformans isolate DUMC 118.00 (FLC resistant), read-out: MIC
[22] = C. neoformans isolate DUMC 158.03 (FLC resistant), read-out: MIC
[23] = C. neoformans isolate MYA-4564, read-out: MIC
[24] = C. neoformans isolate MYA-4565, read-out: MIC
[25] = C. neoformans isolate MYA-4566, read-out: MIC
[26] = C. neoformans isolate MYA-4567, read-out: MIC
[27] = Table 2, C. neoformans isolate H99, read-out: MIC
[28] = Aspergillus fumigatus, MYA3626; read-out: MIC or MEC for A. fumigatus MYA3626

Row | Compound | MIC (C. gattii; [3]) [µg/mL] | MIC (C. gattii; [4]) [µg/mL] | MIC (C. gattii; [5]) [µg/mL] | MIC (C. gattii; [6]) [µg/mL] | MIC (C. gattii; [7]) [µg/mL] | MIC (C. gattii; [8]) [µg/mL] | MIC (C. gattii; [9]) [µg/mL] | MIC (C. gattii; [10]) [µg/mL] | MIC (C. gattii; [11]) [µg/mL] | MIC (C. gattii; [12]) [µg/mL] | MIC (C. albicans 90028; [13]) [µg/mL] | Ratio of AUC with ABT/AUC without ABT, i.p. dosing [1] | Ratio of AUC with ABT/AUC without ABT, p.o. dosing [1] | AUC [1, 14] [ng·h/mL] | AUC [1, 15] [ng·h/mL] | AUC [1, 16] [ng·h/mL] | AUC [1, 17] [ng·h/mL] | MIC (C. neoformans; [18]) [µg/mL] | MIC (C. neoformans; [19]) [µg/mL] | MIC (C. neoformans; [20]) [µg/mL] | also measured
1 | Nc1ncccc1-c1cc(Cc2ccc(Oc3cccc(F)n3)cc2)no1 [APX2039] | 0.016 | 0.016 | 0.008 | 0.008 | 0.016 | 0.016 | 0.016 | 0.008 | 0.004 | 0.004 | 0.031 | 8.3 | 8.6 | 97200 ± 12600 | 11800 ± 1830 | 91300 ± 20800 | 10700 ± 480 | 0.008 | 0.004 | 0.004 | fold higher exposure than the three other compounds ([1]; oral administration of prodrug with ABT): approximately 2 fold; fold higher AUC than the other compounds ([1]; prodrugs administered i.p.): approximately 2 fold; MIC (C. neoformans; [21]): 0.016 µg/mL; MIC (C. neoformans; [22]): 0.031 µg/mL; MIC (C. neoformans; [23]): 0.004 µg/mL; MIC (C. neoformans; [24]): 0.031 µg/mL; MIC (C. neoformans; [25]): 0.008 µg/mL; MIC (C. neoformans; [26]): 0.016 µg/mL; MIC (C. neoformans; [27]): 0.004 µg/mL; fold improved anti-C. neoformans H99 activity vs APX001A (C. neoformans; from MIC values of Table 1): 32 fold; MIC90 [2]: 0.031 µg/mL; MIC [2]: 0.01 µg/mL; fold lower MIC values than APX001A versus Cryptococcus ([2]; Table 1 strains H99 and WM276): 32 fold; MIC (A. fumigatus MYA3626; [28]): 0.125 µg/mL
2 | Nc1ncccc1-c1cc(Cc2ccc(OCc3ccccc3)nc2)no1 [APX2041] | 0.125 | 0.063 | 0.016 | 0.016 | 0.031 | 0.031 | 0.031 | 0.016 | 0.016 | 0.016 | 0.031 | 15.5 | 14.3 | 72600 ± 9070 | 4680 ± 730 | 49900 ± 10300 | 3490 ± 270 | 0.031 | 0.016 | 0.016 | MIC (C. neoformans; [21]): 0.063 µg/mL; MIC (C. neoformans; [22]): 0.125 µg/mL; MIC (C. neoformans; [23]): 0.016 µg/mL; MIC (C. neoformans; [24]): 0.125 µg/mL; MIC (C. neoformans; [25]): 0.063 µg/mL; MIC (C. neoformans; [26]): 0.031 µg/mL; MIC (C. neoformans; [27]): 0.031 µg/mL; MIC90 [2]: 0.125 µg/mL; MIC [2]: 0.034 µg/mL; MIC (A. fumigatus MYA3626; [28]): 0.016 µg/mL
3 | Nn1nnc2ccccc21 [ABT, 1-Aminobenzotriazole, reference compound] |  |  |  |  |  |  |  |  |  |  |  |  |  |  |  |  |  |  |  |  | mean counts in brain tissue (C. neoformans strain H99): 8.07 ± 0.28 log10 CFU/g; mean counts in lung tissue (C. neoformans strain H99): 7.04 ± 0.34 log10 CFU/g
4 | CC[C@H](C)C[C@H](C)CCCCCCCCC(=O)N[C@H]1C[C@@H](O)[C@@H](NCCN)NC(=O)[C@@H]2[C@@H](O)CCN2C(=O)[C@H]([C@H](O)CCN)NC(=O)[C@H]([C@H](O)[C@@H](O)c2ccc(O)cc2)NC(=O)[C@@H]2C[C@@H](O)CN2C(=O)[C@H]([C@@H](C)O)NC1=O [CAS, caspofungin, reference compound] |  |  |  |  |  |  |  |  |  |  |  |  |  |  |  |  |  |  |  |  | MIC (C. albicans 90028; Candida albicans, 90028, read-out: MIC, C. albicans 90028): 0.5 µg/mL; MIC (A. fumigatus MYA3626; Aspergillus fumigatus, MYA3626, read-out: MIC or MEC for A. fumigatus MYA3626): 0.25 µg/mL
